The values below come from article PMC10787790, “Isatin-tethered halogen-containing acylhydrazone derivatives as monoamine oxidase inhibitor with neuroprotective effect” (Scientific Reports, 2024).

Structures are written as SMILES.

Series [1] deals with MAO-B. Particulars: printed in Figure 2 (design strategy), no reference given; cited from earlier work.
Series [2] relates to MAO-A. Particulars: halogenated pyrazoline, no reference given; cited from earlier work.
The target in series [3] is T1, MAO-B (Homo sapiens, UniProt P27338).
T1 sequence (P27338 1-520): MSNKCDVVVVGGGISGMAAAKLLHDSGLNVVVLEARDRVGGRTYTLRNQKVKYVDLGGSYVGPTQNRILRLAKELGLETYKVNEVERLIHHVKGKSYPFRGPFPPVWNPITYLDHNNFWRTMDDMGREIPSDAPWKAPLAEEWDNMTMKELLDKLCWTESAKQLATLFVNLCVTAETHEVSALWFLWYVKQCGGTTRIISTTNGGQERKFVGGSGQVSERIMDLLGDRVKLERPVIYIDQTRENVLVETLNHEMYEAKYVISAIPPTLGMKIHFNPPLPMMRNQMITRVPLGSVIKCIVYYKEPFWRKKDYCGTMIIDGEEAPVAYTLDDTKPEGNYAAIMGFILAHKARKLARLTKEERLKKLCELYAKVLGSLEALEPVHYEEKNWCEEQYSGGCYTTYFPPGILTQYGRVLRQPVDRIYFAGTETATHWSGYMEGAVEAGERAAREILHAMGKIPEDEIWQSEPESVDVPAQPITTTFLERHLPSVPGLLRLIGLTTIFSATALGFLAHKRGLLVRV
The series can be described thus: MAO-B inhibition assay (continuous, benzylamine).
Method: (§1) MAO-A and MAO-B activities were determined using 0.06 mM kynuramine and 0.3 mM benzylamine, respectively[39]. […] Concentrations of the substrates used were around 2.0 times of their Km values for the enzyme assay. The absorbance was measured using the continuous assay method described previously[40].
(§2) The selectivity index (SI) values of the compounds were calculated as follows: (IC50 of MAO-A)/(IC50 of MAO-B)[42].

Series [4] concerns TNF-α. Kind of series: TNF-α expression in LPS-induced SH-SY5Y cells. It counts as cell-based, human. Particulars: LPS 1 µg/mL 2 h, compound 24 h, SH-SY5Y.
Series [5] has as its target T2, MAO-A (Homo sapiens, UniProt P21397).
T2 sequence (P21397 1-527): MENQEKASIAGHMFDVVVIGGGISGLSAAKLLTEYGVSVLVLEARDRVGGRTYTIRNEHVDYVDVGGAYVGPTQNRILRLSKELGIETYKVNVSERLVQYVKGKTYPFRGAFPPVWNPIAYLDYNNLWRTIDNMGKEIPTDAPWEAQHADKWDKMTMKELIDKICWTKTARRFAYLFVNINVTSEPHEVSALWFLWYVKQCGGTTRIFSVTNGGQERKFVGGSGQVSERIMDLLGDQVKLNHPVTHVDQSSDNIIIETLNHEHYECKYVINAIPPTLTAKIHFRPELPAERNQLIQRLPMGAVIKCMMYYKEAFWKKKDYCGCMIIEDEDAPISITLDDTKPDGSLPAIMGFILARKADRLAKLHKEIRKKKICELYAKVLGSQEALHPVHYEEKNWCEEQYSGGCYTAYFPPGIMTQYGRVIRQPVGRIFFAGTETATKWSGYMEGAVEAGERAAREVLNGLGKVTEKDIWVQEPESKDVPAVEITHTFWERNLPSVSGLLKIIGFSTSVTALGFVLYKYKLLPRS
The series can be described thus: Reversibility study by dialysis, MAO-A.
Method: Reversibility test was performed by using Dialyzer DiaEasy™ (6–8 kDa, BioVision, St. Grove, MA, USA).

Series [6] concerns NF-kB. The series can be described thus: NF-kB expression in LPS-induced SH-SY5Y cells.
Series [7] can be described thus: Parallel artificial membrane permeability assay (PAMPA), BBB. It counts as in vitro ADME. The procedure: The blood–brain barrier (BBB) permeation abilities of the four lead molecules were analyzed using the PAMPA method[44],[45]. The detailed procedure is explained in the Supplementary Data.
Using a microtiter plate with 96 wells and a Millipore filter plate with 96 wells (ipvh, 125 μm thick filter, 0.45 μm pore), which was then saturated with 0.1 mL of n-dodecane, a "sandwich" structure was created in PAMPA. Stock solutions of drug samples in DMSO were created at a 10 mM concentration. The stock solution was diluted in buffer at pH 7.4 before being added to a 96-well filter plate in order to achieve a final sample concentration (0.01, 0.1, and 1 mM) and keep the DMSO concentration at 1% (v/v). The final dilutions were divided into 270 μL for the donor wells and 200 μL of pH 7.4 buffer for the acceptor well. The donor plate was placed on the top of the acceptor filter plate to form a sandwich (comprising of a synthetic lipid membrane in the center, an aqueous receiver on […], and an aqueous donor carrying an analyte on the bottom.). The test substance diffuses from the donor well across the lipid membrane and into the acceptor well. The sandwich is said to have been intact when the penetration occurred. The drug concentration in the reference, donor, and receiver wells was measured using UV spectroscopy. The rate of penetration is calculated using the following expression.
Log Pe = -ln [1-CA /Equilibrium]/A× (1/VD + 1/VA) × t

Series [8] addresses T2, MAO-A. The series can be described thus: Enzyme kinetics, Lineweaver-Burk and secondary plots, MAO-A.
Method: Enzyme inhibition patterns and Ki values were determined by comparing Lineweaver–Burk (LB) plots and their secondary plots, respectively[40].
The test system of series [9] is SOD. Kind of series: Superoxide dismutase (SOD) activity in LPS-induced SH-SY5Y cells. It counts as cell-based, human. Particulars: 10 µM/mL.
Method: Using a superoxide dismutase assay kit (KrishGen Biosystems, India), which measures the concentration of formazan crystals using a colorimetric assay, SOD activity was determined. In this test, a tetrazolium salt was used to detect the superoxide radicals produced by xanthine oxidase and hypoxanthine. After treatment, the medium was removed, centrifuged at 2000 rpm for 5 min at room temperature, and placed on ice. A diluted radical detector and lysed cell supernatant or a standard were applied to each well of a 96-well plate to evaluate SOD activity using an ELISA kit, according to the manufacturer’s instructions. The absorbance of the wells was then determined after 5 min at a wavelength of 450 nm using a microplate reader (Safire2, Tecan Group Ltd., Maennedorf, Switzerland).
The test system of series [10] is CAT. The series can be described thus: Catalase (CAT) activity in LPS-induced SH-SY5Y cells. It counts as cell-based, human. Particulars: 10 µM/mL.
Method: (§3) Subcultures were performed every two days.
CAT activity was determined according to Aebi[50]. A human CAT ELISA kit was purchased commercially (KrishGen Biosystems). Following treatment, the adherent cells were scraped off, suspended in cold PBS, sonicated, and placed on ice. The medium was then removed from each well. The 3 mL CAT assay combination comprised of extract (0.05 mL), phosphate buffer (1.5 mL, 100 mM buffer, pH 7.0), H2O2 (0.5 mL), and distilled water (0.95 mL). The absorbance decreased at 450 nm. CAT activity was reported in terms of ng/mL of H2O2 oxidized per min per gram[46]–[49].
For series [11], the target named is T2, MAO-A. Kind of series: MAO-A inhibition assay (continuous, kynuramine).
Method: as §1, §2
Series [12] has as its system ROS. The series can be described thus: ROS assay (DCF) in LPS-treated SH-SY5Y cells. It counts as cell-based, human.
Method: as §3
The OxiSelect Intracellular ROS Assay Kit (Cell Biolabs Inc., San Diego, CA, USA) was used to quantify the levels of the fluorescent probe 20,70-dichlorodihydrofluorescin diacetate (DCFH-DA).
The test system of series [13] is IL-6. Kind of series: IL-6 expression in LPS-induced SH-SY5Y cells. Particulars: LPS 1 µg/mL 2 h, compound 24 h, SH-SY5Y. It counts as cell-based, human.
Series [14] relates to GPx. The series can be described thus: Glutathione peroxidase (GPx) activity in LPS-induced SH-SY5Y cells. It counts as cell-based, human. Particulars: 10 µM/mL.
From the text: A GPx assay kit (KrishGen Biosystems) was used to evaluate the GPx activity. The kit uses a colorimetric assay to determine the quantity of GPx. Glutathione reductase (GR) mediates GPx activity Oxidized glutathione (GSSG) is produced via hydroperoxide reduction by GPx. This glutathione is recycled back to its reduced state by GR and NADPH. The NADPH to NADP + oxidation was accompanied by a decrease in absorbance at 450 nm (A450). When GPx activity was rate-limiting, the rate of decline in A450 was directly correlated with GPx activity. Following treatment, adherent cells were removed from the wells, suspended in cold PBS, sonicated, and frozen. In accordance with the ELISA kit’s instructions, the lysed cell supernatant, or standard, was applied to all 96 wells of a plate together with a diluted radical detector to assay the activity of GPx. A microplate reader was used to measure the absorbance of the wells after 5 min[46]–[49]. Results were obtained in ng/mL.

As to `O=C1Nc2ccc(Cl)cc2/C1=N\NC(=O)c1ccc2c(c1)OCO2` [Compound 2A], the IC50 in series [1] is 89 nM.
Regarding `CCOc1ccc(C2=NNC(c3ccc(Br)cc3)C2)cc1` (stereo not shown) [EH8], the IC50 in series [2] is 4310 nM.
Consider `O=C1Nc2ccc(Cl)cc2/C1=N/NC(=O)c1ccc(Br)cc1` [IS15], for which the figures for the IC50 in series [3] and in [11] were 337 ± 7 nM and 1850 ± 85 nM, respectively. In addition, in series [3] ((IC50 of MAO-A)/(IC50 of MAO-B), MAO-B compared to MAO-A), the “SI (selectivity index)” value stood at 5.50. Moreover, the remaining activity at 10 µM in series [3] (read-out: Residual activity at 10 µM (%) MAO-B) was 12.5 ± 3.64%; in series [11] (read-out: Residual activity at 10 µM (%) MAO-A), 34.7 ± 0.71%. In addition, the “TNF-alpha level vs LPS-treated group” value in series [4] was “significantly (p < 0.0001) reduced”. Further, the “Reversibility of MAO-A inhibition” value in [5] is on record as “reversible-type inhibitors”. For the same compound, the “NF-kB level vs LPS-treated group” value in [6] (LPS 1 µg/mL 2 h, compound 24 h, SH-SY5Y) was “significantly (p < 0.0001) reduced”. In addition, the “NF-kB expression compared to IS6 and IS7” value in [6] (LPS-treated cell lines) was “significantly lower”. The “CNS/BBB permeability in words” value in series [7] was “high permeability and CNS bioavailability”. Besides, the “Prediction (CNS permeation class)” value in series [7] is reported as “CNS+ (Pe (10^−6 cm/s) > 4.00: CNS + (high permeation))”. Moreover, the “Experimental Pe” value in [7] (pH 7.4) was above 4 ×10⁻⁶ cm/s. In [7] (pH 7.4, read-out: Experimental Pe), the Papp stood at 4.39 ± 0.3 ×10⁻⁶ cm/s. Also, the Ki in series [8] is 1000 ± 171 nM. For the same compound, the “Type of MAO-A inhibition” value in series [8] (LB plot) is given as “competitive”. Also, the “SOD (cellular anti-oxidant enzyme) effect” value in series [9] is given as “enhancing the enzyme activity”. In series [10], the “CAT (cellular anti-oxidant enzyme) effect” value is listed as “enhancing the enzyme activity”. Also, in series [11] (relative to IS7), the “Fold higher MAO-A inhibition than IS7” value was found to be 10.35 times. Also, in series [11] (relative to IS13), the “Fold higher MAO-A inhibition than IS13” value stood at 11.94 times. The “DCF intensity decrease at 10 µM” value in series [12] (10 µM/mL (10 µM), vs LPS-induced cells) is on record as “effective DCF intensity decrease”. Also, the “DCF expression (ROS) vs cells treated with LPS alone” value in series [12] (LPS-induced SH-SY5Y) is given as “significantly inhibited (p < 0.0001)”. The “IL-6 level vs LPS-treated group” value in [13] is on record as “significantly (p < 0.0001) reduced”. In addition, the “GPx (cellular anti-oxidant enzyme) effect” value in series [14] is “enhancing the enzyme activity”.

A word on the IC50: it is the point on the concentration scale where inhibition reaches its midpoint. As usually defined, the Ki is a dissociation constant, usually derived from enzyme kinetics or from competition with a known ligand.
